Results from patent publication US20100035865A1, “Sulfonamides and Pharmaceutical Compositions Thereof” (PFIZER INC, priority 2007, published 2010).
Values joined by “and” are separate entries in the source; they are usually repeats but may differ in a detail not shown here. Identical values can stand only once. Like-named read-outs stand apart in the source and are kept apart here.

Assays:
AMPA receptors [1] = assay: AMPA ES Cell FLIPR Screen, G7330B (EC50 and % effect); format: cell-based, murine; details: for G7330B (U): % Effect: Dose 32.0 uM; for EC50: ES cell-derived neurons, 32 uM AMPA challenge
Description: (§1) The murine ES cell line used was E14-Sx1-16C, which has a targeted mutation in the Sox1 gene, a neuroectodermal marker, that offers G418 resistance when the Sox1 gene is expressed (Stem Cell Sciences). ES cells were maintained undifferentiated as previously described (Roach). […] ES cells were plated on gelatin-coated dishes (BD Biosciences), the media was changed daily and the cells were dissociated with 0.05% Trypsin EDTA (Invitrogen) every other day.
(§2) Embryoid Body Formation: Prior to embryoid body (EB) formation the ES cells were weaned from FBS onto Knockout Serum Replacement (KSR) (Invitrogen). To form EBs, ES cells were dissociated into a single cell suspension then 3×10^6 cells were plated in bacteriology dishes (Nunc 4014) and grown as a suspension culture in NeuroEB-I medium that consisted of Knockout™ D-MEM (Invitrogen), supplemented with 10% KSR (Invitrogen), 0.2 mM L-Glutamine (Invitrogen), 0.1 mM MEM non-essential amino acids (Invitrogen), 30 μg/ml Gentamicin (Invitrogen), 1000 u/ml ESGRO (Chemicon), 0.1 mM 2-Mercaptoethanl (Sigma) and 150 ng/ml Transferrin (Invitrogen). The plates were put on a Stovall Belly Button shaker in an atmospheric oxygen incubator. The media was changed on day 2 of EB formation with NeuroEB-I and on day 4 with NeuroEB-II (NeuroEB-I plus 1 μg/ml mNoggin [R&D Systems]).
(§3) Neuronal Precursor Selection and Expansion: On day 5 of EB formation, EBs were dissociated with 0.05% Trypsin EDTA, and 4×10^6 cells/100 mm dish were plated on Laminin coated tissue culture dishes in NeuroII-G418 medium that consisted of a base medium of a 1:1 mixture of D-MEM/F12 supplemented with N2 supplements and NeuroBasal Medium supplemented with B27 supplement and 0.1 mM L-Glutamine (all from Invitrogen). The base medium was then supplemented with 10 ng/ml bFGF (Invitrogen), 1 μg/ml mNoggin, 500 ng/ml SHH-N, 100 ng/ml FGF-8b (R&D Systems), 1 μg/ml Laminin and 200 μg/ml G418 (Invitrogen) for selection of neuronal precursors expressing Sox-1. The plates were put in an incubator that contained 2% Oxygen and were maintained in these conditions. During the 6-day selection period, the NeuroII media was changed daily. On day 6, the surviving neuronal precursor foci were dissociated with 0.05% Trypsin EDTA and the cells were plated at a density of 1.5×10^6 cells/100 mm Laminin coated dish in NeuroII-G418 medium. The cells were dissociated every other day for expansion, and prepared for Cryopreservation at passage 3 or 4. The cryopreservation medium contained 50% KSR, 10% Dimethyl Sulfoxide (DMSO) (Sigma) and 40% NeuroI-G418I medium. Neuronas precursors were crypreserved at a concentration of 4×10^6cells/ml and 1 ml/cryovial in a controlled rate freezer overnight then transferred to an ultra-low freezer or liquid nitrogen for long-term storage,
(§4) Neuronal Differentiation: Cryopreserved ES cell-derived neuronal precursors were thawed by the rapid thaw method in a 37-degree water-bath. The cells were transferred from the cryovial to a 100 mm Laminin coated tissue culture dish that already contained NeuroII-G418 that had been equilibrated in a 2% Oxygen incubator. The media was changed with fresh NeuroII-G418 the next day. The cells were dissociated every other day as described above for expansion to generate enough cells to plate for the screen. For the screen, the cells were plated into 384-well poly-d-lysine coated tissue culture dishes (BD Biosciences) by the automated SelecT at a cell density of 6K cells/well in differentiation medium NeuroIII that contained a 4:1 ratio of the NeuroBasalMedium/B27:D-MEM/F12/N2 supplemented with 1 μM cAMP (Sigma), 200 μM Ascorbic Acid (Sigma), 1 μg/ml Laminin (Invitrogen) and 10 ng/ml BDNF (R&D Systems). The plates were put in an incubator with 2% Oxygen and allowed to complete the differentiation process for 7 days. The cells could then be used over a 5-day period for the high throughput screen.
(§5) Procedure for AMPA ES Cell FLIPR Screen […]

AMPA receptors [2] = assay: AMPA ES Cell FLIPR Screen, G7330A (single dose % effect); format: cell-based, murine; details: Dose 32.0 uM; mean (range and n in cells below); ES cell-derived neurons, 32 uM AMPA challenge; negative control AMPA alone, positive control AMPA plus cyclothiazide
Description: as §1, §2, §3, §4, §5

Row | EC50 (AMPA receptors [1]; individual determinations, read-out: G7330B (U): EC50) | EC50 (AMPA receptors [1]; mean of individual determinations (range and n in cells below), read-out: G7330B mean EC50) | Structure (SMILES) | G7330B (U): % Effect (AMPA receptors [1]; individual determinations) | G7330A: % Effect (AMPA receptors [2])
1 | > 32 µM | > 32 µM | CS(=O)(=O)N[C@@H]1CNCC[C@H]1c1ccc(-c2ccccc2)cc1 (relative stereo) [Example 8, N-(trans-4-Biphenyl-4-yl-piperidin-3-yl)-methanesulfonamide] | 62.1% and 46.9% and 54.7% and 34.7% and 36.6% and 38.0% | 56.3%
2 | – | – | CCCS(=O)(=O)N[C@@H]1CNCC[C@@H]1c1ccc(-c2ccccc2)cc1 (relative stereo) [Example 12, Propane-1-sulfonic acid(cis-4-biphenyl-4-yl-piperidin-3-yl)-amide] | 0.428% and −0.204% and −0.02059% and 0.243% | 0.110%
